Source: the supplement of paper PMC10307832

Legend:
Assay in all cases: relative viability (nuclei count vs DMSO), 5 days (fraction); higher = more cells survive
GSK126 + Trametinib = compound: CC[C@H](C)N1C=C(C2=C(C=C(C=C21)C3=CN=C(C=C3)N4CCNCC4)C(=O)NCC5=C(C=C(NC5=O)C)C)C [GSK126] + CC(=O)Nc1cccc(-n2c(=O)n(C3CC3)c(=O)c3c(Nc4ccc(I)cc4F)n(C)c(=O)c(C)c32)c1 [Trametinib] (partner 0.02 µM)
Method in brief: (§1)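 Relative viability was taken as the ratio of nuclei in treated wells to nuclei in vehicle wells. Lung cancer cell lines in 1536-well plates received compounds by pin tool one day after seeding, either one drug alone or a fixed anchor-drug dose plus five library-drug doses (not always all listed) in √10 steps. Nuclei were counted on 4× images after 5 days of treatment, and values are medians of duplicate plates.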

MLN4924 + Dasatinib = compound: NS(=O)(=O)OC[C@@H]1C[C@@H](n2ccc3c(N[C@H]4CCc5ccccc54)ncnc32)C[C@@H]1O [MLN4924] + Cc1nc(Nc2ncc(C(=O)Nc3c(C)cccc3Cl)s2)cc(N2CCN(CCO)CC2)n1 [Dasatinib] (partner 0.075 µM)
Method in brief: as §1

Carboplatin + Olaparib = compound: C1CC(C1)(C(=O)O)C(=O)O.[NH2-].[NH2-].[Pt+2] [Carboplatin] + O=C(c1cc(Cc2n[nH]c(=O)c3ccccc23)ccc1F)N1CCN(C(=O)C2CC2)CC1 [Olaparib] (partner 8 µM)
Method in brief: as §1

MLN4924 + Lapatinib = compound: NS(=O)(=O)OC[C@@H]1C[C@@H](n2ccc3c(N[C@H]4CCc5ccccc54)ncnc32)C[C@@H]1O [MLN4924] + CS(=O)(=O)CCNCc1ccc(-c2ccc3ncnc(Nc4ccc(OCc5cccc(F)c5)c(Cl)c4)c3c2)o1 [Lapatinib] (partner 2 µM)
Method in brief: as §1

## UMC-11
GSK126 + Trametinib; first compound 0.08 µM
  relative viability: 0.744
GSK126 + Trametinib; first compound 0.253 µM
  relative viability: 0.774
GSK126 + Trametinib; first compound 0.8 µM
  relative viability: 0.771
GSK126 + Trametinib; first compound 2.53 µM
  relative viability: 0.714
GSK126 + Trametinib; first compound 8 µM
  relative viability: 0.728
MLN4924 + Dasatinib; first compound 0.04 µM
  relative viability: 0.505
MLN4924 + Dasatinib; first compound 0.1265 µM
  relative viability: 0.349
MLN4924 + Dasatinib; first compound 0.4 µM
  relative viability: 0.251
MLN4924 + Dasatinib; first compound 1.265 µM
  relative viability: 0.151
MLN4924 + Dasatinib; first compound 4 µM
  relative viability: 0.177
Carboplatin + Olaparib; first compound 0.08 µM
  relative viability: 0.72
Carboplatin + Olaparib; first compound 0.253 µM
  relative viability: 0.573
Carboplatin + Olaparib; first compound 0.8 µM
  relative viability: 0.433
Carboplatin + Olaparib; first compound 2.53 µM
  relative viability: 0.381
Carboplatin + Olaparib; first compound 8 µM
  relative viability: 0.345
MLN4924 + Lapatinib; first compound 0.04 µM
  relative viability: 0.39
MLN4924 + Lapatinib; first compound 0.1265 µM
  relative viability: 0.383
MLN4924 + Lapatinib; first compound 0.4 µM
  relative viability: 0.271
MLN4924 + Lapatinib; first compound 1.265 µM
  relative viability: 0.122
MLN4924 + Lapatinib; first compound 4 µM
  relative viability: 0.143
